# Assay results from the supplement of paper PMC10307832.
# Columns and labels:
# Test in all cases: relative viability (nuclei count vs DMSO), 5 days (fraction); higher = more cells survive
# [1] = compound: CC(C)C[C@H](NC(=O)[C@H](Cc1ccccc1)NC(=O)c1cnccn1)B(O)O [Bortezomib] + CS(=O)(=O)CCNCc1ccc(-c2ccc3ncnc(Nc4ccc(OCc5cccc(F)c5)c(Cl)c4)c3c2)o1 [Lapatinib] (partner 2 µM)
# Summary of the method: (§1)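 One day after seeding in 1536-well plates, lung cancer cell lines were dosed by pin tool. Dosing was either single-drug or a fixed anchor-drug dose plus five library-drug doses (not always all listed) in √10 steps. After 5 days, nuclei were stained in one fix-and-stain step and counted on 4× images, and relative viability is the nuclei count of treated wells over that of vehicle wells, given as the median of duplicate plates.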
# [2] = compound: COC1=CC(c2cc3ccccc3[nH]2)=N/C1=C\c1[nH]c(C)cc1C [Obatoclax] + CS(=O)(=O)CCNCc1ccc(-c2ccc3ncnc(Nc4ccc(OCc5cccc(F)c5)c(Cl)c4)c3c2)o1 [Lapatinib] (partner 2 µM)
# Summary of the method: as §1
# [3] = compound: CC(C)C[C@H](NC(=O)[C@H](Cc1ccccc1)NC(=O)c1cnccn1)B(O)O [Bortezomib] + O=C(CCCCCCC(=O)Nc1ccccc1)NO [Vorinostat] (partner 1 µM)
# Summary of the method: as §1
# [4] = compound: CC1=CC(=NN1)NC2=CC(=NC(=N2)/C=C/C3=CC=CC=C3)N4CCN(CC4)C + Nc1ncn([C@H]2C[C@H](O)[C@@H](CO)O2)c(=O)n1 [Decitabine] (partner 2 µM)
# Summary of the method: as §1
Cell Line,relative viability ([1]; first compound 0.0002 µM),relative viability ([1]; first compound 0.000632 µM),relative viability ([1]; first compound 0.002 µM),relative viability ([1]; first compound 0.006325 µM),relative viability ([1]; first compound 0.02 µM),relative viability ([2]; first compound 0.01 µM),relative viability ([2]; first compound 0.03162 µM),relative viability ([2]; first compound 0.1 µM),relative viability ([2]; first compound 0.3162 µM),relative viability ([2]; first compound 1 µM),relative viability ([3]; first compound 0.0002 µM),relative viability ([3]; first compound 0.000632 µM),relative viability ([3]; first compound 0.002 µM),relative viability ([3]; first compound 0.006325 µM),relative viability ([3]; first compound 0.02 µM),relative viability ([4]; first compound 0.08 µM),relative viability ([4]; first compound 0.253 µM),relative viability ([4]; first compound 0.8 µM),relative viability ([4]; first compound 2.53 µM),relative viability ([4]; first compound 8 µM)
HARA,0.647,0.527,0.73,0.0694,0.0797,0.816,0.752,0.667,0.69,0.297,0.512,0.672,0.175,0.0466,0.0668,0.529,0.641,0.569,0.192,0.132
LU99A,0.939,–,1.11,0.811,0.171,0.997,0.922,0.914,0.255,0.196,0.479,0.427,0.533,0.464,0.152,0.86,0.892,0.73,0.409,0.214
LK-2,0.804,0.922,0.498,0.204,0.232,0.994,0.838,0.915,0.886,0.805,0.401,0.416,0.323,0.173,0.195,0.215,0.327,0.274,0.175,0.0787
NCI-H23,–,0.866,1.06,0.156,0.135,1.13,1.23,0.805,0.619,0.458,0.603,–,0.495,0.132,0.0977,0.302,0.326,0.29,0.177,0.141
NCI-H647,1.05,1.05,0.711,0.0371,0.0208,1.02,0.982,0.48,0.189,0.144,0.492,0.583,0.0536,0.0218,0.0184,0.32,0.429,0.36,0.121,0.122
201T,1.01,0.99,1.06,1.05,0.512,1.08,0.789,0.94,1.01,0.97,0.964,0.936,0.993,0.916,0.328,0.834,0.864,0.831,0.785,0.471
NCI-H1734,0.977,0.99,1.32,0.21,0.112,1.04,0.994,–,0.661,0.706,0.832,0.845,0.635,0.115,0.0944,0.515,0.531,0.544,0.362,0.16
NCI-H596,0.947,1,0.99,0.245,0.264,0.941,0.951,0.827,0.643,0.503,0.506,0.614,0.365,0.219,0.173,1.17,1.01,0.889,0.659,0.364
